Results on one compound are retold here after US20050215551A1, “1-[2H-1-benzopyran-2-one-8-yl]- piperazine derivatives for the treatment of movement disorders” (SOLVAY PHARMACEUTICALS B.V., priority 2004, published 2005).

Like-named read-outs stand apart in the source and are kept apart here.

Series [1] has as its system DBA/2 mice. Nature of the series: Anticonvulsant activity: audiogenic seizures in DBA/2 mice. The format is in vivo. Conditions: for ED50: Mus musculus; for behavioural changes: all dosages tested. From the text:
DBA/2 mice weighing 6-12 g (22-26 days old; either sex, Harlan Italy Correzzana, Milano, Italy) are housed in groups of 8-10 under a 12-h light/dark cycle (lights on at 7:00 a.m.) with food and water available ad libitum. The experimental protocol is approved by University of Catanzaro Ethical Committee. All procedures are in compliance with the Nationals Institutes of Health Guide for Care and Use of Laboratory Animals (Publication No. 85-23, revised 1985) and European Communities Council Directive of 24 Nov. 1986 (86/609 EEC).
The experiments are performed according to the method previously described by De Sarro et al. (1984), Eur. J. Pharmacol., 104, 55-60. Compounds of the invention or vehicle (controls) are given intraperitoneally (i.p.) and orally (p.o.) as freshly sonicated solutions in methylcellulose 1%. For the […]; pretreatment time at 30 and 60 min., For oral treatment, all animals are pretreated either at 30 or 60 min using the compounds of the invention at doses of 0.1, 0.3, 3, 6 and 10 mg/kg p.o. At least 10 mice per dose are used. After pretreatment time, each mouse is placed under a hemispheric perspex dome (58 cm in diameter) and 1 min is allowed for habituation and assessment of locomotor activity. Animals are challenged with a 12-16 kHz sinusoidal tone at 109 dB. Seizure response is assessed by two independent observers. The sound evoked behaviour is coded using the following scale: 0=no response, 1=wild running, 2=clonus, 3=tonic flexor and/or extensor; 4=respiratory arrest, on the basis of the concordant opinion of the observers. […] The maximum response is recorded for each animal. Rectal temperature is recorded immediately prior to auditory testing using an Elektrolaboratoriet thermometer type T.E.3. Behavioral changes are observed during the period between drug administration and auditory testing. In these experiments separate vehicle-treated and drug-treated groups are used at each pretreatment time (15 min-60 min). Percentage of mice showing wild running, clonic or tonic phase and the duration of anticonvulsant activity are compared to control group and statistically analyzed.
Statistical comparison between groups of control and drug-treated DBA/2 mice is made using Fisher's exact probability test (incidence of the seizure phases). The percentage incidence of each phase of the audiogenic seizure is determined for each drug. These values are plotted against the corresponding doses by a computer construction of the dose-effect curves for calculation of ED50 (with 95% confidence limits). The ED50 values for each compound are calculated using a computer program of the method of Litchfield and Wilcoxon (1949). At least 32 animals are used to calculate each ED50 value.
For systemic injections and oral administrations, all compounds are given intraperitoneally (0.1 ml/10 g of body weight of the mouse) as a freshly prepared solution in methylcellulose 1%. In order to avoid the light sensitivity, weighing and handling are carried out under sodium vapor lamps and the substances are protected from light during the experiments.

In series [2] the test system is BDNF. Nature of the series: Induction of growth factors: BDNF RNA in brain areas by quantitative PCR. It is filed as in vivo. Conditions: 3 mg/kg p.o. once daily, 3 weeks. On the procedure:
Compounds of the invention (3 mg/kg, p.o.) or vehicle are administered once daily during a period of 3 weeks (n=8 animals per treatment group). 24 hours after the last dose the animals are sacrificed (using CO2/O2 anesthesia), the brains are removed and the dissected. RNA is extracted from the individual brain samples and induction of the growth factors BDNF and GDNF is determined by quantitative PCR. Total RNA is isolated with the Trizol method (Invitrogen) from the brain pieces. cDNA is made starting with 2 μg of total RNA (pretreated for 30 min with DNAse (Ambion) in first strand buffer) using the reverse transcriptase Superscript II (Invitrogen). Quantification of […] by real time PCR makes use of the observation that the early cycles of PCR are characterized by an exponential increase in target amplification. The accumulation of PCR product is measured using Sybergreen II. Primers are designed using the software package Primer Express (Applied Biosystems). Expression levels of the housekeeping genes ornithine decarboxylase (ODC_ex8) and alpha tubulin (TUBA) used for normalization and as control for good cDNA synthesis.

In series [3] the target is T1, 5-HT1A (Rattus norvegicus, UniProt P19327).
T1 construct: from tissue; host or cells: whole animal (in vivo behavioural test)
T1 sequence (P19327 whole entry): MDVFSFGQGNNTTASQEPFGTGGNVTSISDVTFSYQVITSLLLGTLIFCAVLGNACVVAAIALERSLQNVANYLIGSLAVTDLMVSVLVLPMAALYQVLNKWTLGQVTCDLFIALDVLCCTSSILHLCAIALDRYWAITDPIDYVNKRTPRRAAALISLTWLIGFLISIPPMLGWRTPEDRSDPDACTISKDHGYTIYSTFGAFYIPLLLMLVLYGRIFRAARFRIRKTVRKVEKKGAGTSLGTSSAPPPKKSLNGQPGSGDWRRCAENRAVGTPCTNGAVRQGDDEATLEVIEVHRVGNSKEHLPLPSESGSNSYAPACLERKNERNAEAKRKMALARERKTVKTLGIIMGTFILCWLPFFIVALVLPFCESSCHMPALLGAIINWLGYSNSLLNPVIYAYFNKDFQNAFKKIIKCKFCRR
In words: In vivo 5-HT1A agonism: lower lip retraction (LLR). Conditions: 60 minutes after oral administration. Here is the method:
Lower lip retraction was measured according to the method described by Berendsen et al., (Pharmacol. Biochem. Behav. 33, (1989), 821-827).

The target of series [4] is 5-HT4 (Homo sapiens, UniProt Q13639). In words: Receptor binding 5-HT4. The conditions noted are these: radioligand [3H]-GR 113808, read-out: Ki(nM) Compound 1. On the procedure:
(§1) Receptor binding data were obtained by CEREP (128, rue Danton, 92500 Rueil-Malmaison, France) or at Solvay Pharmaceuticals B.V., using well documented standard procedures. Affinity for 5-HT1A receptors for instance, was determined by testing the ability of the compounds of the invention to displace [^3H]-2-(di-n-propylamino)-8-hydroxytetralin ([^3H]-8-OH-DPAT) from its specific binding sites in rat frontal cortex homogenates. This test is based on the method described by Gozlan et al. (Nature, 305, (1983), pages 140-142).
(§2) The binding data collected in the table below were either obtained by CEREP (128, rue Danton, 92500 Rueil-Malmaison, France) or at Solvay Pharmaceuticals B.V., using well documented standard procedures.

Series [5] concerns the target 5-HT6 (Homo sapiens, UniProt P50406). Nature of the series: Receptor binding 5-HT6. Conditions: radioligand [3H]-LSD, read-out: Ki(nM) Compound 1. On the procedure: as §1, §2
For series [6], the target named is α1B-adrenergic (Rattus norvegicus, UniProt P15823). Nature of the series: Receptor binding α1B-adrenergic. The conditions noted are these: radioligand [3H]-prazosin, read-out: Ki(nM) Compound 1. Here is the method:
as §1, §2

Series [7] deals with CRF (Homo sapiens, UniProt P34998). Nature of the series: Receptor binding CRF. Conditions: radioligand [125I]-oCRF, read-out: Ki(nM) Compound 1. Here is the method:
as §1, §2

The target of series [8] is LTD4 (Cavia porcellus, UniProt Q2NNR5). In words: Receptor binding LTD4. Conditions: radioligand [3H]-LTD4; guinea pig; read-out: Ki(nM) Compound 1. Here is the method:
as §1, §2

For series [9], the target named is VIP1 (Homo sapiens, UniProt P32241). In words: Receptor binding VIP1. Conditions: radioligand [125I]-VIP, read-out: Ki(nM) Compound 1. On the procedure:
as §1, §2

5-HT4, sequence (Q13639 whole entry): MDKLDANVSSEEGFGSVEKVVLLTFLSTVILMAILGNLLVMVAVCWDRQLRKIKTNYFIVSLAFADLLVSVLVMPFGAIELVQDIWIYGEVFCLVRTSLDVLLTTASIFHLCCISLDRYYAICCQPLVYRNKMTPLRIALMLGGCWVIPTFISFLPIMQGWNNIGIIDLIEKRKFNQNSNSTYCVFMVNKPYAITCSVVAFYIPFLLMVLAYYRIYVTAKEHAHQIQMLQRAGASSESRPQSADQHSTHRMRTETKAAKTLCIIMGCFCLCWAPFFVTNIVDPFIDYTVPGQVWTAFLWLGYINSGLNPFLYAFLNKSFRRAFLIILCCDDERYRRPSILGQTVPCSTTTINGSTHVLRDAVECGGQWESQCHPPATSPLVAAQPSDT
LTD4, sequence (Q2NNR5 whole entry): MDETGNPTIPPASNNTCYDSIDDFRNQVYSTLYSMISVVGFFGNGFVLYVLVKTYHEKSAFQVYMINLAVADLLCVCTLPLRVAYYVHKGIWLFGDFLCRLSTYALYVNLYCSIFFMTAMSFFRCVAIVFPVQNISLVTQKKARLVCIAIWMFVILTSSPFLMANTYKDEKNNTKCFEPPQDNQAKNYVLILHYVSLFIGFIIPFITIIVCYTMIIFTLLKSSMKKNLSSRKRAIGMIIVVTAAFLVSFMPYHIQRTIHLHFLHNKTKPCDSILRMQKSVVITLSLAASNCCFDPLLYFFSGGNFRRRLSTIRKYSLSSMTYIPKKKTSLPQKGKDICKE
CRF, sequence (P34998 24-415): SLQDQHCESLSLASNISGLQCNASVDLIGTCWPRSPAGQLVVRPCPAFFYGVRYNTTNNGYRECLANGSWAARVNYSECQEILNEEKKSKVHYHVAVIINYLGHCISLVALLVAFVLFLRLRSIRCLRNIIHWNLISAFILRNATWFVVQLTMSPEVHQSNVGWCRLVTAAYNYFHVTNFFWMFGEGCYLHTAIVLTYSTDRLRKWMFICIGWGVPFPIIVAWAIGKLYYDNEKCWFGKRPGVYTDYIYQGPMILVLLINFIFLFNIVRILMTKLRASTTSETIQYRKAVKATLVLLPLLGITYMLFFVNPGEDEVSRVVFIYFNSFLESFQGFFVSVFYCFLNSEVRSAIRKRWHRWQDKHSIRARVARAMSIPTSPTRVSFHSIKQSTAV
α1B-adrenergic, sequence (P15823 whole entry): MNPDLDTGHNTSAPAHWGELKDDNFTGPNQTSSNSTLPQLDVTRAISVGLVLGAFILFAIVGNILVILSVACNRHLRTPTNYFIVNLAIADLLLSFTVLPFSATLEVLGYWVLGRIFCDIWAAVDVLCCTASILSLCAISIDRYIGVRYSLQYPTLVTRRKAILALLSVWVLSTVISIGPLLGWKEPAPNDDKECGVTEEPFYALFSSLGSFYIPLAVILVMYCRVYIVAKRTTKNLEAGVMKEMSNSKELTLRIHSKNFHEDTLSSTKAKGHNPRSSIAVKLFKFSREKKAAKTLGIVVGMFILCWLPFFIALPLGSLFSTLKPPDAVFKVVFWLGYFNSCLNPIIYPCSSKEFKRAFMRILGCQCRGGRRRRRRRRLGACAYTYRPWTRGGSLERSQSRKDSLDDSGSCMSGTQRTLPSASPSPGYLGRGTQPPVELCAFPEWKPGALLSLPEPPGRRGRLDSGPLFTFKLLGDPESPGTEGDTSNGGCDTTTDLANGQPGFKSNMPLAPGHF
VIP1, sequence (P32241 31-457): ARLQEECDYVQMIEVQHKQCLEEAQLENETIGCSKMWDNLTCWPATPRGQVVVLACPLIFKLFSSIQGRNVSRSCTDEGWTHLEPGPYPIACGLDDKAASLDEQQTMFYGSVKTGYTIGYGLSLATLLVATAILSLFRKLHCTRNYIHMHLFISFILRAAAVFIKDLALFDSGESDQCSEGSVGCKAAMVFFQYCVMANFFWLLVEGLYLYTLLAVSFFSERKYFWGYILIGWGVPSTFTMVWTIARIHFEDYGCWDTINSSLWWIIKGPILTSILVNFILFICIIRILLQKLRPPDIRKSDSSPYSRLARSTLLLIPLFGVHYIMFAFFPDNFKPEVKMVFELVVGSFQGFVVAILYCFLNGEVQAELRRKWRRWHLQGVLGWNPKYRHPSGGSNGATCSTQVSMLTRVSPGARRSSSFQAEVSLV
5-HT6, sequence (P50406 whole entry): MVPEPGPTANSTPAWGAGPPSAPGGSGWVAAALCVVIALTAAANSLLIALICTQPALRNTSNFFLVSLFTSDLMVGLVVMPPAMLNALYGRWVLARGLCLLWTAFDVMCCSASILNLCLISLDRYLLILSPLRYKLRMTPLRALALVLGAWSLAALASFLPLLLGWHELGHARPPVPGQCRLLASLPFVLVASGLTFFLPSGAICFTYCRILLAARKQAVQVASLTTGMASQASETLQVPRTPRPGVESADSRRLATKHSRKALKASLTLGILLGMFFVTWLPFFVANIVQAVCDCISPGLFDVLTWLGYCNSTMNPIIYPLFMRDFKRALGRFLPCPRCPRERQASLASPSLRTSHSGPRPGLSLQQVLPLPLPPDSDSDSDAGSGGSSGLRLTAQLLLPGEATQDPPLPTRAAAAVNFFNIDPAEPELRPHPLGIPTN

For orientation: Ki means a dissociation constant, usually derived from enzyme kinetics or from competition with a known ligand. As for `Nc1cc2cccc(N3CCNCC3)c2oc1=O` [Compound 1, 3-amino-8-(1-piperazinyl)-2H-1-benzopyran-2-one], the ED50 in [1] (ip, 0.5 h, read-out: ED50 Tonic extension, i.p. administration, 30 minutes after drug administration) came to 0.66 mg/kg; in series [1] (ip, 0.5 h, i.p. administration, 30 minutes after drug administration, read-out: ED50 Clonic seizures), 3.7 mg/kg; in [1] (ip, 0.5 h, i.p. administration, 30 minutes after drug administration, read-out: ED50 Wild running), 39 mg/kg; in series [1] (ip, 1 h, i.p. administration, 60 minutes after drug administration, read-out: ED50 Clonic seizures), 1.9 mg/kg; in series [1] (ip, 1 h, i.p. administration, 60 minutes after drug administration, read-out: ED50 Tonic extension) it was 0.26 mg/kg; in series [1] (ip, 1 h, i.p. administration, 60 minutes after drug administration, read-out: ED50 Wild running), 20.5 mg/kg. Moreover, the ED50 came out at 4.91 mg/kg in series [1] (po, 0.5 h, p.o. administration, 30 minutes after drug administration, read-out: ED50 Clonic seizures); 1.19 mg/kg in series [1] (po, 0.5 h, read-out: ED50 Tonic extension, p.o. administration, 30 minutes after drug administration); 1.34 mg/kg in series [1] (po, 1 h, p.o. administration, 60 minutes after drug administration, read-out: ED50 Clonic seizures); 0.27 mg/kg in [1] (po, 1 h, p.o. administration, 60 minutes after drug administration, read-out: ED50 Tonic extension); 0.12 mg/kg in series [3]. Further, the behavioural changes result in [1] (i.p. administration) and in series [1] (oral administration) was “At none of the dosages tested” in each case. The “BDNF RNA, fold increase compared to vehicle treatment” value is given as 2.4 fold in series [2] (hippocampus); 5.1 fold in [2] (nucleus accumbens); 2.1 fold in series [2] (prefrontal cortex); 1.8 fold in series [2] (striatum); 2.3 fold in [2] (thalamus). Moreover, the Ki was over 1000 nM in [4]; over 1000 nM in series [5]; over 1000 nM in series [6]; over 10000 nM in [7]; over 10000 nM in series [8]; over 1000 nM in series [9].
